Molecules are shown by their SMILES.

Experiment [1] deals with symptomatic subjects with PAH. As to the kind of experiment: Oxygen desaturation (drop in SpO2 from beginning to end of six-minute walk test), Phase 2 study IK-7001-PAH-201. The class given is in vivo, human. The text has this:
(§1) This study was a Phase 2, placebo controlled, double-blind, randomized, clinical study to determine the safety, tolerability and efficacy of pulsed iNO versus placebo as add-on therapy in symptomatic subjects with PAH (IK-7001-PAH-201; NCT01457781). The primary outcome of this study was change from baseline in pulmonary vascular resistance (PVR). Secondary outcome measure included change in 6MWD, time to first clinical worsening event (TTCW), change in WHO functional class, change in Borg Dyspnea Score (BDS) and change in patient reported outcome (PRO) scores by the SF-36 short form version 2 and the Cambridge Pulmonary Hypertension Outcome Review (CAMPHOR).
(§2) PAH subjects were administered pulsed iNO at a dose of 25 or 75 mcg/IBW kg/hr for up to 24 hours a day for up to 16 weeks, or received pulsed placebo (99.999% N2) for up to 24 hours a day for up to 16 weeks. The dose of 25 mcg/kg IBW/hr was administered from a mini-cylinder having 2,440 ppm NO and the dose of 75 mcg/kg IBW/hr was administered from a mini-cylinder having 4,880 ppm NO.
(§3) All subjects were receiving at least one approved PAH therapy and were clinically symptomatic from PAH (e.g. onset or increased dyspnea on exertion, dizziness, near-syncope, syncope, chest pain or peripheral edema).
Oxygen desaturation was measured as the drop in SpO2 level from the beginning to the end of the six-minute walk test (6MWT). Oxygen desaturation was measured at baseline and after 16 weeks of chronic treatment with iNO at a dose of 75 mcg/kg IBW/hr (iNO 75) or 25 mcg/kg IBW/hr (iNO 25) or placebo.

In experiment [2] the test system is symptomatic subjects with PAH. As to the kind of experiment: Exercise capacity (change in 6MWD from baseline to 16 weeks), Phase 2 study IK-7001-PAH-201. The class given is in vivo, human.
Source text: as §1, §2, §3
Also shown is the change in exercise capacity, measured as the change in 6MWD from baseline to 16 weeks.

On to `[N]=O` [iNO, nitric oxide], for which the “Change in Oxygen Desaturation (SpO2)” value in experiment [1] (iNO 25 mcg/kg IBW/hr, pulsed, up to 24 h/day, baseline to 16 weeks (LOCF), PAH subjects) is −0.14; in experiment [1] (iNO 75 mcg/kg IBW/hr, pulsed, up to 24 h/day, baseline to 16 weeks (LOCF), all PAH subjects), −2.19; in experiment [1] (iNO 75 mcg/kg IBW/hr, No LTOT, baseline to 16 weeks, PAH subjects), 0.40; in experiment [1] (iNO 75 mcg/kg IBW/hr, compliant >12 hrs per day, No LTOT, baseline to 16 weeks, PAH subjects) it was 1.33; in experiment [1] (iNO 75 mcg/kg IBW/hr, compliant >12 hrs per day, with LTOT, baseline to 16 weeks, PAH subjects), −3.36; in experiment [1] (iNO 75 mcg/kg IBW/hr, with LTOT, baseline to 16 weeks, PAH subjects), −3.00. Further, the “Change in 6MWD (meters)” value was 4.7 meters in experiment [2] (iNO 25 mcg/kg IBW/hr, pulsed, up to 24 h/day, PAH subjects); −20.8 meters in experiment [2] (iNO 75 mcg/kg IBW/hr, No LTOT, PAH subjects); −29.7 meters in experiment [2] (iNO 75 mcg/kg IBW/hr, compliant >12 hrs per day, No LTOT, PAH subjects); 52.4 meters in experiment [2] (iNO 75 mcg/kg IBW/hr, compliant >12 hrs per day, with LTOT, PAH subjects); 22.8 meters in experiment [2] (iNO 75 mcg/kg IBW/hr, pulsed, up to 24 h/day, all PAH subjects); 34.9 meters in experiment [2] (iNO 75 mcg/kg IBW/hr, with LTOT, PAH subjects).

Source of the values: patent publication US12653837B2, “Use of inhaled nitric oxide and oxygen for the treatment of pulmonary hypertension” (Bellerophon Pulse Technologies LLC, priority 2017, dated 2026).
